Laboratory results reported in US9610249B2, “Dosage and administration for preventing cardiotoxicity in treatment with ERbB2-targeted immunoliposomes comprising anthracycline chemotherapeutic agents” (MERRIMACK PHARMACEUTICALS, INC., priority 2010, dated 2017).

What was measured:
[1] = test system: BT474-M3 cells; experiment: Binding and internalization into HER2 over-expressing tumor cells (total and nuclear doxorubicin); format: cell-based, human; settings: BT474-M3 (1.7×10^6 HER2/cell), 15 μg/ml, up to 3 h
[2] = test system: ESCd cardiomyocytes; experiment: Uptake of liposomes in cardiomyocytes (HPLC); format: cell-based, human; settings: ESCd cardiomyocytes (approximately 70,000 HER2 receptors per cell), 15.0 μg/ml dox equiv.
Description: (§1) iPSd cardiomyocytes are plated per the manufacturer's instructions (Cell Dynamics International Cat #CMC-100-110-001) in a 24-well tissue culture plate at 250,000 cells/well. Two days later, the 0.5 ml of media in the wells is removed and replaced with 0.5 ml of 15.0 μg/ml (dox equiv.) of MM-302, PLD or free doxorubicin. The plates are swirled in a “figure 8 fashion” 20 times to maximize exposure of the cells to the liposomes. Cells are incubated with MM-302, PLD or free doxorubicin for the indicated time period after which the media are removed and the cells are washed once with 0.5 ml of PBS. The PBS is removed and 0.5 ml of 0.05% trypsin is added to each well. The cells are monitored, and once detachment begins, 0.5 ml of medium containing FBS is added to each well to inactivate the trypsin. The cells are collected and placed in microcentrifuge tubes. The cells are spun at 1,500 rpm for 5 minutes at 4° C. […] Samples are run on the HPLC machine and concentration per sample is determined by relating values to a doxorubicin standard curve.
(§2) To determine if the level of HER2 expression on cardiomyocytes is sufficient to induce uptake of MM-302, total cellular doxorubicin was quantified by HPLC following treatment of ESCd (FIG. 4A) and iPSd (FIG. 4B) cardiomyocytes.

[3] = test system: iPSd cardiomyocytes; experiment: Uptake of liposomes in cardiomyocytes (HPLC); format: cell-based, human; settings: iPSd cardiomyocytes (approximately 200,000 HER2 receptors per cell), 15.0 μg/ml dox equiv.
Description: as §1, §2

[4] = test system: iPSd cardiomyocytes; format: cell-based, human
Text: Exposure to low levels of doxorubicin can be cytotoxic.

[5] = test system: gamma-H2AX; format: cell-based, human
Description: (§3) Cardiomyocytes are treated as described above. Cells are fixed using 3.7% formaldehyde, washed twice with PBS containing 0.1% Tween-20 (PBS-T), and permeabilized with methanol. Cells are blocked using a 1:1 mixture of LI-COR® Odyssey® Blocking Buffer (Lincoln, Nebr.) and PBS-T for 1 h at room temperature (RT). Cells are stained with a 1:400 dilution of the indicated primary antibody from Cell Signaling Technology (Beverly, Mass.) and incubated shaking at 4° C. overnight. Cells are washed and incubated with a 1:2,000 dilution of the fluorescently labeled secondary antibody for 1 h at RT. Cells are stained with a 1:10,000 dilution of Hoechst 33342 and 1:1,000 dilution of Whole Cell Stain from Pierce Protein Research Products (Rockford, Ill.) for 30 min at RT to allow visualization of DNA and the whole cell, respectively. Plates are scanned using the Applied Precision Instruments ArrayWorx® High Content Scanner (Issaquah, Wash.) with a 10× objective for Hoechst 33342/Whole Cell Stain (460 nm), doxorubicin (595 nm), and APC/DiI5 (657 nm). Images are analyzed using the software ImageRail (as described in Millard et al., Nat Methods. 2011; 8:487-92). An intensity threshold is established for nuclear and whole cell signals. This threshold is then applied to all images and used to segment individual cells. […]

[6] = test system: phospho-p53; experiment: High-content analysis of cell stress in cardiomyocytes; format: cell-based, human; settings: ESCd cardiomyocytes, 3 h treatment, 24 h fresh media
Description: as §3

[7] = test system: phospho-HSP27; format: cell-based
Description: as §3

[8] = test system: cleaved PARP (cPARP); format: cell-based
Description: as §3

[9] = Biodistribution of doxorubicin in heart tissue of NCI-N87 tumor bearing mice (HPLC); settings: 3 mg/kg dox equiv. i.v.
Description: 5-7-week-old female nude mice are purchased from Charles River Laboratories or Taconic Farms, Inc (NCr nude mice). Unless otherwise indicated, mice are inoculated with BT474-M3 breast cancer cells or NCI-N87 gastric cancer cells (NCI-DTP, 10×10^6 cells in 100 μl RPMI) into the right dorsal flank of the mice (subcutaneous injection, s.c.). When the tumors reach an average volume of ˜200 mm^3, studies are performed as described below.
(§4) Mice are randomized into 4 groups that received a single intravenous (i.v.) dose of either PBS, doxorubicin, MM-302-DiI5 or PLD-DiI5 (all at 3 mg/kg), respectively. Mice (n=4/time point/group) are sacrificed at 0.5, 4, 24 and 96 h (doxorubicin) or 168 h (MM-302-DiI5 and PLD-DiI5) after the single dose. Five minutes before sacrificing, mice are injected i.v. with 100 μl of FITC-lectin, to label the vasculature.
Heart tissues are weighed and disaggregated with 1 mL H2O using a TissueLyser™ (Qiagen) for 3 min. 100 μl of the homogenate is then transferred into a new tube and 900 μl of 1% acetic acid/methanol is added. For the cultured cells, cells are treated with drug, as described above, trypsinized and lysed using 1.0% acetic acid in methanol. Lysates are vortexed for 10 sec. and placed at −80° C. for 1 h. Samples are spun at room temperature (RT) for 10 min at 10,000 RPM. Supernatants and doxorubicin standards are analyzed by HPLC (Dionex) using a C18 reverse phase column (Synergi™ POLAR-RP® 80 Å, 250×4.60 mm 4 μm column). Doxorubicin is eluted running a gradient from 30% acetonitrile; 70% 0.1% trifluoroacetic acid (TFA)/H2O to 55% acetonitrile; 45% 0.1% TFA/H2O during a 7 min span at a flow rate of 1.0 ml/min. The doxorubicin peak is detected at 6.5 min using an in-line fluorescence detector excited at 485 nm, and emitting at 590 nm.
The macro-level biodistributions of MM-302 (square), PLD (UT-PLD, triangle) and doxorubicin (free dox, circle) were compared in mouse heart tissue (FIG. 7A), human xenograft tumor tissue (FIG. 7B) and paw tissue (FIG. 7C) in NCI-N87 tumor bearing mice inoculated as described above. Mice (n=4/time point/group) were injected i.v. with MM-302, PLD, or free doxorubicin (all at 3 mg/kg dox equiv.) and hearts were collected at 0.5, 4, 24, and 96 h (for dox) or 168 h (for MM-302 and PLD) post injection and doxorubicin quantified by HPLC (FIG. 7A).

[10] = Nuclear doxorubicin in heart sections (confocal microscopy and image analysis); settings: 3 mg/kg dox equiv. i.v.
Description: as §4

[11] = test system: Troponin I (iPSd cardiomyocytes)
Description: 15,000 iPSd (iCELL®) cardiomyocytes (Cellular Dynamics International, Madison Wis.) cells are plated per the manufacturer's protocol. […] The supernatant is collected and analyzed using a human Troponin I ELISA (Catalog #: GWB-83A61F, Genway Biotech, San Diego Calif.) per the manufacturer's protocol. A PrestoBlue® Cell Viability Assay (Catalog #: A-13261, Invitrogen, Grand Island, N.Y.) is performed on the remaining cells in 100 μl per the manufacturer's protocol.

[12] = patients; cited from earlier work
[13] = test system: phospho-AKT (pAKT); experiment: Signaling in iPS-derived cardiomyocytes; format: cell-based, human; settings: 24 hours pretreatment
Description: (§5) Cells are stained and imaged using high content microscopy as described above for (A) pAKT and (B) pERK following a10 minute stimulation with 10 nM and 5 nM of heregulin, respectively. The following primary antibodies are used at a 1:400 dilution in blocking buffer: pERK antibody—Cell Signaling Technology (CST—Danvers Mass.)—Catalog 9106L (Phospho-p44/42 MAPK (Erk1/2) (Thr202/Tyr204) (E10) Mouse mAb #9106); pAKT antibody—CST—Catalog 4060L (Phospho-Akt (Ser473) (D9E) XP™ Rabbit mAb #4060). Secondary antibodies are Anti-mouse IgG (H+L), F(ab′)2 Fragment (Alexa Fluor® 647 Conjugate)—CST—Catalog 4410; Anti-rabbit IgG (H+L), F(ab′)2 Fragment (Alexa Fluor® 647 Conjugate)—CST—Catalog 4414. Whole cell stain and DNA stain (Hoechst 33342) are used as described above. Images are analyzed and individual cells are segmented on the basis of Hoechst 33342 nuclear staining. Single cell signal intensity for each stain is quantified and represented as the mean relative intensity of individual cells.
(§6) After stimulation with 10 nM (FIG. 6A) and 5 nM (FIG. 6B) of heregulin (HRG) for 10 min, the levels of phospho-AKT (pAKT, FIG. 6A) and phospho-ERK (pERK, FIG. 6B) were measured by high content microscopy as described above.

[14] = test system: phospho-ERK (pERK); experiment: Signaling in iPS-derived cardiomyocytes; format: cell-based, human; settings: 24 hours pretreatment
Description: as §5, §6

## COc1cccc2c1C(=O)c1c(O)c3c(c(O)c1C2=O)C[C@@](O)(C(=O)CO)C[C@@H]3O[C@H]1C[C@H](N)[C@H](O)[C@H](C)O1 [doxorubicin, Doxorubicin]
[1]
  total cell binding and nuclear doxorubicin accumulation: freely enter cells and accumulate in the nucleus
[2]
  total cellular doxorubicin (uptake): doxorubicin accumulation in all cells
[3]
  total cellular doxorubicin (uptake): doxorubicin accumulation in all cells
[4]
  effect on cardiomyocyte viability: marked decrease in viability
[5]
  nuclear gamma-H2AX: dose-dependent increase in nuclear gamma-H2AX
[6]
  phospho-p53: dose-dependent increase
[7]
  phospho-HSP27: dose-dependent increase
[8]
  nuclear cleaved PARP (cPARP) at 5.0 μg/ml: increase in nuclear cleaved PARP
[9]
  clearance of doxorubicin from the heart tissue: faster compared to MM-302 and PLD
  time of peak doxorubicin exposure in the heart: 0.5 h
[9]; 0.5 h post injection
  doxorubicin in the heart at 0.5 h: 10 % of injected dose (i.d.)/g tissue
[9]; 24 h post injection
  doxorubicin in the heart at 24 h: 0.77 % of i.d./g tissue
[10]; 0.5 h
  nuclei positive for doxorubicin in heart tissue at 0.5 h: about 50%
[10]; 4 h
  nuclei positive for doxorubicin in heart tissue at 4 h: 23%
[10]; 24 h
  nuclei positive for doxorubicin in heart tissue at 24 h: returned to basal levels
[11]
  Troponin I in supernatant: marked increase of Troponin I
[12]
  cumulative doxorubicin exposure that increases the potential for cardiomyopathy and heart failure: above 550 mg/m^2

## CS(=O)(=O)CCNCc1ccc(-c2ccc3ncnc(Nc4ccc(OCc5cccc(F)c5)c(Cl)c4)c3c2)o1 [lapatinib]
[13]; no heregulin
  basal phosphorylation of AKT: reduction in basal phosphorylation
[13]; 10 nM heregulin, 10 min
  heregulin (HRG)-induced phosphorylation of AKT: complete inhibition of HRG-induced phosphorylation
[14]; no heregulin
  basal phosphorylation of ERK: reduction in basal phosphorylation
[14]; 5 nM heregulin, 10 min
  heregulin (HRG)-induced phosphorylation of ERK: complete inhibition of HRG-induced phosphorylation
